≈ marks a conversion by molar mass, not a printed value. Read-outs that look alike come from different tables or passages of the source. One block for each compound: values may come before it.
What was measured:
[1] = test system: K. pneumoniae isolate 850707; test: Minimum inhibitory concentration (MIC) results, isolate 850707; assay type: cell-based; settings: for MIC: Klebsiella pneumoniae, read-out: MIC Value
Description: (§1) The ability to view additional or varied information may be set by a user as a preference on a customized basis, or the information may be hidden and made available based on a request or selection from a user according to some embodiments. For example, a display interface may be configured such that the user can make a selection on a short form name or symbol to expand a field or open a new window on the display that provides detailed antibiotic resistance data or other diagnostically useful information for a subject sample. For example, in TABLE 17, the differences in minimum inhibitory concentration (MIC) results for two isolate species are provided.
(§2) In TABLE 18, the isolates are numbered and linked to an isolate species (K. pneumoniae); resistome profiles including the species (K1), phenotype (CRE), genotype (IMP and C1), and profile uniqueness identifiers indicating sequential unique patterns compared to an associated database (1-1 and 2-1, respectively); Acuitas MDRO Gene Test results (IMP(A) and CTX-M(A)); and reported genotypes listed in rank order of clinical importance (IMP-26, CTX-M-15, and SHV-28(u), and IMP-4, CTX-M-15, SHV-1(b), and TEM, respectively). The trailing “1s” in the assigned resistome profiles (i.e., the second digit of each profile uniqueness identifier) reflect the first occurrences of these patterns/profiles derived based on data collected from subject sample measurements. In this example, the tests are not designed to detect SHV, TEM, ACT/MIR, CMY-2, DHA-1, ACT-16, or VEB-1.

[2] = test system: K. pneumoniae isolate 850793; test: Minimum inhibitory concentration (MIC) results, isolate 850793; assay type: cell-based; settings: for MIC: Klebsiella pneumoniae, read-out: MIC Value
Description: as §1, §2

[3] = test system: cephalosporin-resistant (3rd or 4th generation) Gram-negative bacillus; settings: CephR-GNB; Revised (M100-S20); cited from earlier work
[4] = test system: carbapenem-resistant Enterobacteriaceae; settings: CRE, cited from earlier work
[5] = test system: D-alanyl-D-lactate variation of NAM/NAG-peptide subunits; settings: D-alanyl-D-lactate versus D-alanyl-D-alanine; cited from earlier work
[6] = test system: D-alanyl-D-serine variation of NAM/NAG-peptide subunits; settings: D-alanyl-D-serine versus D-alanyl-D-alanine; cited from earlier work
[7] = Isolate No. 850707, K. pneumoniae, IMP-26, CTX-M-15, SHV-28(u)
[8] = Isolate No. 850793, K. pneumoniae, IMP-4, CTX-M-15, SHV-1(b), TEM

MIC [1, 7]: 32 mg/L (≈ 54.6 µM)
MIC [2, 8]: 32 mg/L (≈ 54.6 µM)
Compound: NCC[C@H](O)C(=O)N[C@@H]1C[C@H](N)[C@@H](O[C@H]2O[C@H](CN)[C@@H](O)[C@H](O)[C@H]2O)[C@H](O)[C@H]1O[C@H]1O[C@H](CO)[C@@H](O)[C@H](N)[C@H]1O [Amikacin]

MIC [1, 7]: 32 mg/L (≈ 91.6 µM)
MIC [2, 8]: 32 mg/L (≈ 91.6 µM)
Compound: CC1(C)S[C@@H]2[C@H](NC(=O)[C@H](N)c3ccccc3)C(=O)N2[C@H]1C(=O)O [Ampicillin]

MIC [1, 7]: 16 mg/L (≈ 33.3 µM)
MIC [2, 8]: 16 mg/L (≈ 33.3 µM)
Compound: CO/N=C(\C(=O)N[C@@H]1C(=O)N2C(C(=O)[O-])=C(C[N+]3(C)CCCC3)CS[C@H]12)c1csc(N)n1 [Cefepime]
MIC breakpoint, Intermediate [3]: 16 mg/L (≈ 33.3 µM)
MIC breakpoint, Resistant [3]: ≥32 mg/L
MIC breakpoint, Susceptible [3]: ≤8 mg/L

MIC [1, 7]: 6 mg/L (≈ 12.6 µM)
MIC [2, 8]: 1 mg/L (≈ 2.1 µM)
Compound: C[C@@H](O)[C@H]1C(=O)N2C(C(=O)O)=C(S[C@@H]3CN[C@H](C(=O)Nc4cccc(C(=O)O)c4)C3)[C@H](C)[C@H]12 [Ertapenem]
MIC breakpoint, Intermediate ([4]; Current Breakpoints (M100-S22)): 1 mg/L (≈ 2.1 µM)
MIC breakpoint, Resistant ([4]; Current Breakpoints (M100-S22)): ≥2 mg/L
MIC breakpoint, Susceptible ([4]; Current Breakpoints (M100-S22)): ≤0.5 mg/L

MIC [1, 7]: 2 mg/L (≈ 6.68 µM)
MIC [2, 8]: 8 mg/L (≈ 26.7 µM)
Compound: C[C@@H](O)[C@H]1C(=O)N2C(C(=O)O)=C(SCCN=CN)C[C@H]12 [Imipenem]

MIC [1, 7]: 1 mg/L (≈ 2.77 µM)
MIC [2, 8]: 0.5 mg/L (≈ 1.38 µM)
Compound: C[C@H]1COc2c(N3CCN(C)CC3)c(F)cc3c(=O)c(C(=O)O)cn1c23 [Levofloxacin]

MIC [1, 7]: 32 mg/L (≈ 83.4 µM)
MIC [2, 8]: 8 mg/L (≈ 20.9 µM)
Compound: C[C@@H](O)[C@H]1C(=O)N2C(C(=O)O)=C(S[C@@H]3CN[C@H](C(=O)N(C)C)C3)[C@H](C)[C@H]12 [Meropenem]
MIC breakpoint, Intermediate ([4]; Current Breakpoints (M100-S22)): 2 mg/L (≈ 5.22 µM)
MIC breakpoint, Resistant ([4]; Current Breakpoints (M100-S22)): ≥4 mg/L
MIC breakpoint, Susceptible ([4]; Current Breakpoints (M100-S22)): ≤1 mg/L

Continued, compound first:

Compound: CO/N=C(\C(=O)N[C@@H]1C(=O)N2C(C(=O)O)=C(COC(C)=O)CS[C@H]12)c1csc(N)n1 [Cefotaxime]
MIC breakpoint, Intermediate ([4]; Revised (M100-S20)): 2 mg/L (≈ 4.39 µM)
MIC breakpoint, Resistant ([4]; Revised (M100-S20)): ≥4 mg/L
MIC breakpoint, Susceptible ([4]; Revised (M100-S20)): ≤1 mg/L

Compound: CC(C)(O/N=C(\C(=O)N[C@@H]1C(=O)N2C(C(=O)[O-])=C(C[n+]3ccccc3)CS[C@H]12)c1csc(N)n1)C(=O)O [Ceftazidime]
MIC [1, 7]: 16 mg/L (≈ 29.3 µM)
MIC [2, 8]: 128 mg/L (≈ 234 µM)
MIC breakpoint, Intermediate ([4]; Revised (M100-S20)): 8 mg/L (≈ 14.6 µM)
MIC breakpoint, Resistant ([4]; Revised (M100-S20)): ≥16 mg/L
MIC breakpoint, Susceptible ([4]; Revised (M100-S20)): ≤4 mg/L
MIC breakpoint, Intermediate [3]: 8 mg/L (≈ 14.6 µM)
MIC breakpoint, Resistant [3]: ≥16 mg/L
MIC breakpoint, Susceptible [3]: ≤4 mg/L

Compound: CO/N=C(\C(=O)N[C@@H]1C(=O)N2C(C(=O)O)=C(CSc3nc(=O)c(=O)[nH]n3C)CS[C@H]12)c1csc(N)n1 [Ceftriaxone]
MIC breakpoint, Intermediate ([4]; Revised (M100-S20)): 2 mg/L (≈ 3.61 µM)
MIC breakpoint, Resistant ([4]; Revised (M100-S20)): ≥4 mg/L
MIC breakpoint, Susceptible ([4]; Revised (M100-S20)): ≤1 mg/L

Compound: C[C@@H](O)[C@H]1C(=O)N2C(C(=O)O)=C(S[C@@H]3CN[C@H](CNS(N)(=O)=O)C3)[C@H](C)[C@H]12 [Doripenem]
MIC [1, 7]: 32 mg/L (≈ 76.1 µM)
MIC [2, 8]: 4 mg/L (≈ 9.51 µM)
MIC breakpoint, Intermediate ([4]; Current Breakpoints (M100-S22)): 2 mg/L (≈ 4.76 µM)
MIC breakpoint, Resistant ([4]; Current Breakpoints (M100-S22)): ≥4 mg/L
MIC breakpoint, Susceptible ([4]; Current Breakpoints (M100-S22)): ≤1 mg/L

Compound: CN(C)c1cc(NC(=O)CNC(C)(C)C)c(O)c2c1C[C@H]1C[C@H]3[C@H](N(C)C)C(O)=C(C(N)=O)C(=O)[C@@]3(O)C(O)=C1C2=O [Tigecycline]
MIC [1]: 2 mg/L (≈ 3.41 µM)
MIC [2]: 1 mg/L (≈ 1.71 µM)

Compound: CN[C@H](CC(C)C)C(=O)N[C@H]1C(=O)N[C@@H](CC(N)=O)C(=O)N[C@H]2C(=O)N[C@H]3C(=O)N[C@H](C(=O)N[C@H](C(=O)O)c4cc(O)cc(O)c4-c4cc3ccc4O)[C@H](O)c3ccc(c(Cl)c3)Oc3cc2cc(c3O[C@@H]2O[C@H](CO)[C@@H](O)[C@H](O)[C@H]2O[C@H]2C[C@](C)(N)[C@H](O)[C@H](C)O2)Oc2ccc(cc2Cl)[C@H]1O [vancomycin]
decrease in affinity [5]: 1000 fold
loss of affinity between vancomycin and the peptide [6]: six-fold

Compound: Colistin/TWEEN
MIC Value [1, 7]: 0.12 mg/L
MIC Value [2, 8]: 0.12 mg/L
